Measured values: paper PMC12406685, “Thiazole substitution of a labile amide bond—a new option toward antiplasmodial pantothenamide-mimics” (Antimicrobial Agents and Chemotherapy, 2025)
Read-outs that look alike come from different tables or passages of the source.

Assays:
PfPanK = PfPanK (Plasmodium falciparum, UniProt Q8IL92+Q8ILP4); assay: [14C]pantothenate phosphorylation assay in P. falciparum lysates (Somogyi reagent); assay type: biochemical; settings: for inhibition at 2 µM: read-out: Inhibition of pantothenate phosphorylation
Method: Parasite lysates were prepared from saponin-isolated mature trophozoite-stage parasites as described by Saliba et al. ([14]), with modifications. Briefly, a culture with predominantly trophozoite stage parasites was thoroughly mixed with saponin (0.05% [wt/vol] final concentration) and centrifuged at 2,000 × g for 8 min at 4°C. The pelleted parasites were then transferred to a 1.5 mL tube and washed three times (16,000 × g, 1 min each time) with cold malaria saline (125 mM NaCl, 5 mM KCl, 25 mM HEPES, 20 mM glucose, 1 mM MgCl2, pH 7.1). Subsequently, washed saponin-isolated parasites were suspended in 1 mL of 10 mM Tris/Cl, pH 7.4, followed by trituration (10 times) through a SafetyGlide injection needle (25-gauge). The lysates were then centrifuged at 16,000 × g for 30 min at 4°C, and the supernatant was transferred to a new tube. The concentration of the lysates was then determined using the Bradford reagent.
Phosphorylation of [^14C]pantothenate was determined using a combination of zinc sulphate (ZnSO4) and barium hydroxide (Ba(OH)2) (Somogyi reagent) as previously described ([78]). In the 125 min time course, each reaction (650 µL) contained a final concentration of 50 mM Tris-Cl (pH 7.4), 5 mM ATP, 5 mM MgCl2, 2 µM (0.1 µCi/mL) [^14C]pantothenate, and 60 µg of total parasite lysate. The compounds were added at their 10× antiplasmodial IC50 values or at various concentrations to generate dose–response curves. Mixtures were incubated at 37°C throughout the experiment, and reactions were initiated by the addition of the lysates. A reaction with identical components to the test reactions but lacking the parasite lysate was prepared to serve as a no-phosphorylation negative control, and a reaction with DMSO vehicle control (0.2% vol/vol) served as a positive control. At pre-determined time points, 50 µL of the reaction mixture was transferred in triplicate to wells of a 96-well filter plate with 0.2 µm hydrophilic polyvinylidene fluoride (PVDF) membrane filter (Corning), which had been pre-loaded with 50 µL of 150 mM Ba(OH)2. The reaction mixtures were thoroughly mixed with the Ba(OH)2 in the wells to precipitate the enzyme and terminate the phosphorylation reaction. After all reactions had been terminated, phosphorylated compounds in each well were precipitated by the addition of 50 µL of 150 mM ZnSO4 to generate the Somogyi reagent. The plate was then washed twice with deionized H2O and once with 95% (vol/vol) ethanol using a vacuum manifold to remove the non-phosphorylated [^14C]pantothenate and was subsequently dried overnight at 37°C in a non-humidified incubator. The following day, 30 µL of Microscint-O (PerkinElmer) was added to each well, and the plate was sealed on the top and bottom with TopSeal-A Plus sealing film (PerkinElmer). A Packard Microplate Scintillation and Luminescence Counter was used to measure the radioactivity in each well immediately after the plate had been sealed. To determine the total radioactivity in each phosphorylation assay, 50 µL of each reaction mixture was added to the wells of an OptiPlate-96 microplate (PerkinElmer) in triplicate and was then thoroughly mixed with 150 µL of Microscint-40 (PerkinElmer), and the radioactivity was measured in the same manner. Phosphorylation of [^14C]pantothenate, calculated as a percentage of the radioactivity measured in the test wells relative to the total radioactivity in the phosphorylation assay, was then plotted against the reaction time. Each data set was analyzed by linear regression, from which the phosphorylation rate of each reaction was then determined and expressed as a percentage of the phosphorylation rate of the DMSO-positive control reaction.

[1] = system: intraerythrocytic P. falciparum; assay: In vitro parasite proliferation assay (SYBR Safe-based fluorescence); assay type: cell-based, Plasmodium falciparum (3D7 strain); settings: for IC50: Plasmodium falciparum, intraerythrocytic stage, 96 h; for Antiplasmodial IC50 range, in words: 1 µM pantothenate
Method: Culturing of intraerythrocytic stage P. falciparum parasites (3D7 strain) was carried out using a method adapted from Trager and Jensen ([97]) and Allen and Kirk ([98]). Parasites were maintained within human, male or female, erythrocytes (typically Group O+, Rh+, 4% hematocrit) in RPMI-1640 medium (Thermo Fisher Scientific, catalogue number 72400120) supplemented with 25 mM HEPES, 11 mM glucose, 200 μM hypoxanthine, 24 μg/mL gentamicin and 6 g/L Albumax II on a horizontally rotating shaking incubator (New Brunswick Innova 42/[…]) at 37°C under an atmosphere of 96% nitrogen, 3% carbon dioxide, and 1% oxygen. To evaluate the effect of each compound on the in vitro proliferation of P. falciparum parasites, a SYBR Safe-based fluorescence assay was used as previously described ([32]). All pantothenamide-mimics tested were initially dissolved to a concentration of 200 mM in DMSO. The final DMSO concentration in the assay never exceeded 0.1% (vol/vol). Assays were performed using the same medium used to culture the parasites. […] Assays were set up with synchronous ring-stage P. falciparum-infected erythrocytes in 96-well microtiter plates. Parasites were synchronized using 5% (wt/vol) sorbitol ([100]). […] P. falciparum-infected erythrocytes incubated in the presence of 0.5 μM chloroquine were used as a non-proliferation control, and those incubated in the absence of compounds and chloroquine served as a 100% parasite proliferation control. To minimize “edge effects” ([101], [102]), the outermost rows and columns of the microtiter plates were not used in the proliferation assays and were filled with 200 μL of medium. The plates were then incubated at 37°C for 96 h under a low-oxygen atmosphere. At the end of the incubation, plates were frozen at -80°C to lyse the cells. […] The fluorescence in the non-proliferation control wells was subtracted from the fluorescence readings in the other wells prior to further analysis. Parasite proliferation, calculated as a percentage of the fluorescence measured in the test wells relative to the fluorescence measured in the 100% parasite proliferation control wells, was then plotted against the logarithm of the compound concentration. […] IC50 values (determined from the sigmoidal curves) were averaged from three independent experiments.

[2] = RPMI-1640 containing 1 µM pantothenate, mean ± SEM of three experiments, read-out: IC50 (µM) against Pf at 1 µM Pan
[3] = RPMI-1640 containing 100 µM pantothenate, read-out: IC50 (µM) against Pf at 100 µM Pan

Sequence of PfPanK (Q8ILP4 entry or part of it): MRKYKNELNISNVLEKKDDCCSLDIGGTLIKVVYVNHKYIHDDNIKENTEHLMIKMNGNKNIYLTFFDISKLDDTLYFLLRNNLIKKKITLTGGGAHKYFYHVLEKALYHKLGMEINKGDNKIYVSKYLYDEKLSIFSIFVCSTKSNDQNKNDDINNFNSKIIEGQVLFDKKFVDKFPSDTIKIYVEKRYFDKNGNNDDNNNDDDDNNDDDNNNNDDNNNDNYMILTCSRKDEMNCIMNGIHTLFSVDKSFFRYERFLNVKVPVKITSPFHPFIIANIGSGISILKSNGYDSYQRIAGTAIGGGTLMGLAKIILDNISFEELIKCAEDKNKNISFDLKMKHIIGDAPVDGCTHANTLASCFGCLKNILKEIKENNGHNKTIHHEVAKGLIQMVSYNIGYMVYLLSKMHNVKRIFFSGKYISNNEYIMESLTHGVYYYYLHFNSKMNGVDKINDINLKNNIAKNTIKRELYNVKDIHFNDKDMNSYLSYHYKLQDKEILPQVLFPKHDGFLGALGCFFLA
Sequence of PfPanK (Q8IL92 entry or part of it): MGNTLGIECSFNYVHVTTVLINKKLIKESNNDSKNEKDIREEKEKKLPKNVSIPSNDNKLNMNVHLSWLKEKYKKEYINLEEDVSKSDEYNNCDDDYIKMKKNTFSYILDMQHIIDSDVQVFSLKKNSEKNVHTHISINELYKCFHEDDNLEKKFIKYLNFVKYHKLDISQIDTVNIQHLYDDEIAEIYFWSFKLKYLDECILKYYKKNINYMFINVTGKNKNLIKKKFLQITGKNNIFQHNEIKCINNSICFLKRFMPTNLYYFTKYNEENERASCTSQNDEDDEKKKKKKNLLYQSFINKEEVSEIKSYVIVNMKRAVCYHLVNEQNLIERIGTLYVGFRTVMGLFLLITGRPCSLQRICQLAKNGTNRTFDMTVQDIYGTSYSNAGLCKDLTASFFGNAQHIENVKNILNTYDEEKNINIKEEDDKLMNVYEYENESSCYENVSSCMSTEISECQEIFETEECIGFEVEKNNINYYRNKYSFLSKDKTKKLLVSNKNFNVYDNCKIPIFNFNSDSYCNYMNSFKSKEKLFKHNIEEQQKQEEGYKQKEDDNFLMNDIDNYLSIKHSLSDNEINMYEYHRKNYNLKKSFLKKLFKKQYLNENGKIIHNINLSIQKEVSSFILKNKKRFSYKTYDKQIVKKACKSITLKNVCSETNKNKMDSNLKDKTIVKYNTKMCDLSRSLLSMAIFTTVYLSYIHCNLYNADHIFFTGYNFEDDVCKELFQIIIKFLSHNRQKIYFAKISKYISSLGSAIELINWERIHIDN

Compound	inhibition at 2 µM (PfPanK) [%]	IC50 [1, 2] [µM]	IC50 [1, 3] [µM]	Antiplasmodial IC50 range, in words [1]	Fold by which IC50 at inhibiting pantothenate phosphorylation is higher than Km for pantothenate of PfPanK (PfPanK; relative to reported Km 270 ± 95 nM)
CCCCCc1csc(CNC(=O)[C@H](O)C(C)(C)CO)n1 [Compound 1c]	> 90	2.3 ± 0.2	> 25		
CCCCc1csc(CNC(=O)[C@H](O)C(C)(C)CO)n1 [Compound 1a]	> 90	0.77 ± 0.1	> 6.25	sub-micromolar range	
CC(C)(CO)[C@@H](O)C(=O)NCc1csc(Cc2ccccc2)n1 [Compound 2c]	> 90	2.4 ± 0.2	> 25		
CC(C)(CO)[C@@H](O)C(=O)NCc1nc(CCc2ccccc2)cs1 [Compound 1e]	> 90	0.77 ± 0.09	> 12.5	sub-micromolar range	
CC(C)(CO)[C@@H](O)C(=O)NCc1csc(-c2ccccc2)n1 [Compound 2e]	~80	0.51 ± 0.02	> 6.25	sub-micromolar range	approximately 2.1 fold
CC(C)(CO)[C@@H](O)C(=O)NCc1cnc(-c2ccccc2)s1 [Compound 3f]	> 90	8 ± 0.7	> 50		
